pIC50: −log10 of the molar value. Structures can show the parent of a compound that is named as a salt.
Experiments:
δ opioid receptors = δ opioid receptors (Rattus norvegicus, UniProt P33533); assay: Opiate Binding Assay, displacement of 3[H]-DSLET from δ opioid receptors (rat forebrain membranes)
μ opioid receptors = μ opioid receptors (Rattus norvegicus, UniProt P33535); assay: Opiate Binding Assay, displacement of 3[H]-DAMPGO from μ opioid receptors (rat forebrain membranes)
mice = assay: Writhing Assay (phenylbenzoquinone-induced writhing, analgesia, s.c.); format: in vivo, mouse; settings: for relative potency in the Writhing Assay: among compounds of the invention tested; for Number of Animals out of 10 Exhibiting Analgesia: subcutaneous, 5 mpk, PBQ, mice
Excerpt: The "Writhing Assay" is one of the most widely-used experimental procedures for measuring the analgesic activity of different narcotic and nonnarcotic analgesic agents, and involves the continuous, chemically-induced pain of visceral origin to an animal, such as a mouse or rat. [Gyires et al., Arch. int. Pharmacodyn, 267, 131-140 (1984); C. Vander Wende et al., Fed. Proc., 15, 494 (1956); Koster et al., Fed. Proc., 18, 412 (1959); and Witken et al., J. Pharmacol. Exp. Ther., 153,400-408 (1961).] Chemicals which may be used to induce this pain include phenylbenzoquinone (PBQ) and acetic acid. As a result of the chemical irritation to the animal, a characteristic stretching and writhing of the animal (dorsiflexion of the animal's back, extension of its hindlimbs and the strong contraction of its abdominal musculature) will generally occur. […] Drugs which reduce the number of writhes of the animal appear to restore the normal nociceptive threshold of the animal.
This assay was conducted generally in the manner described by R. I. Taber, "Predictive Value of Analgesic Assays in Mice and Rats," Advances in Biochemical Psychopharmacology, 8, 191 (1974).
Two hundred CD Charles River mice, weighing 20 to 30 grams, were used in this assay.
Twenty-five minutes after subcutaneous administration to the mice of 10 mg per kilogram (mpk) of body weight of a tyrosyl diamine amide compound of the invention (hereinafter "test compound"), 0.1 mL per 10 g of body weight of a 0.025% w/v solution of phenylbenzoquinone (PBQ) was injected intraperitoneally into each mouse. Some mice were given saline in place of a test compound, and were used as a control group.
Five minutes later, each mouse was individually placed into a glass beaker for observation, and the number of writhes occurring during the following ten-minute period was counted.
A compound was considered to be "active" (to have produced analgesia in a mouse) if, after the administration of 10 mg per kilogram (mpk) of body weight of the compound to the mouse, the number of writhes elicited by a mouse injected with PBQ was equal to, or less than, one-half the median number of writhes recorded for the saline-treated control group of mice that day, as described by R. I. Taber, supra.
The standard initial screening dose of a test compound employed in this assay was 10 mpk […]. […] (The slopes of the dose-response curves for the compounds analyzed were compared as described by Tallarida and Murray, Manual of Pharmacologic Calculations, Page 11 (Springer Verlag, New York, 1981)).

[1] = extended use; cited from earlier work
[2] = test system: the same receptor sites as do the opiates; settings: cited from earlier work
[3] = antagonized by naloxone; cited from earlier work

δ opioid receptors, sequence (P33533 whole entry): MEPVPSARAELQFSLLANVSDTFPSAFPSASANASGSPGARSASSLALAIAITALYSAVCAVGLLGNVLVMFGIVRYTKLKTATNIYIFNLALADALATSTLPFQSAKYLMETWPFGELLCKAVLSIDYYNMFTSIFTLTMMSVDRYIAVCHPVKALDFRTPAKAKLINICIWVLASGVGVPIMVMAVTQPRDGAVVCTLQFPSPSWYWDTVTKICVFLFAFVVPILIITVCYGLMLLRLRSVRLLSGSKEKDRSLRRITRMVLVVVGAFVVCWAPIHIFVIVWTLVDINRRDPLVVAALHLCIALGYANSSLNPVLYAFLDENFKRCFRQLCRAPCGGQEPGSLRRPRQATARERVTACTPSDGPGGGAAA
μ opioid receptors, sequence (P33535 whole entry): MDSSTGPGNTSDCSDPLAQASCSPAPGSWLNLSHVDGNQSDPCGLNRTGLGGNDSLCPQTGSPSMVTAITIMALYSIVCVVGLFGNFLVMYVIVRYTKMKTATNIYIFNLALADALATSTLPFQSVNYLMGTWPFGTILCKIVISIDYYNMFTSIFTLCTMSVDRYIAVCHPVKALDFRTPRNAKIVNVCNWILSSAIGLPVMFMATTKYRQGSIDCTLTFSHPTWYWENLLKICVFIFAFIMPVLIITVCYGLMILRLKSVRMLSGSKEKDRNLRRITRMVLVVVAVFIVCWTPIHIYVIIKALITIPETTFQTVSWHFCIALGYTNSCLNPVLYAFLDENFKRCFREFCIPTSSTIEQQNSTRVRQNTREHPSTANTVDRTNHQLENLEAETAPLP

Row | SMILES | pIC50 (δ opioid receptors) | pIC50 (μ opioid receptors) | other results
1 | Cc1cc(O)cc(C)c1C[C@H](N)C(=O)NC(C)(C)CNC(=O)OCc1ccccc1 [Example 3, Phenylmethyl[2-[[2S-amino-3-(4-hydroxy-2,6-dimethylphenyl)-1-oxopropyl]amino]-2-methylpropyl]carbamate, monohydrochloride] | 8.00 | 7.21 | –
2 | Cc1cc(O)cc(C)c1C[C@H](N)C(=O)NC(C)(C)CNC(=O)c1ccc2ccccc2n1 [Example 6, N-[2-[[2S-amino-3-(4-hydroxy-2,6-dimethylphenyl)-1-oxopropyl]amino]-2-methylpropyl]-2-quinolinecarboxamide, hydrochloride] | 8.46 | 8.89 | relative potency in the Writhing Assay (mice): the most potent compounds of the invention tested in the Writhing Assay; Number of Animals out of 10 Exhibiting Analgesia (mice): 10/10
3 | Cc1cc(O)cc(C)c1C[C@H](N)C(=O)NC(C)(C)CNC(=O)c1cnc2ccccc2c1 [Example 8, N-[2-[[2S-amino-3-(4-hydroxy-2,6-dimethylphenyl)-1-oxopropyl]amino]-2-methylpropyl]-3-quinolinecarboxamide, hydrochloride] | 7.60 | > 8.00 | –
4 | Cc1cc(O)cc(C)c1C[C@H](N)C(=O)NC(C)(C)CNC(=O)NCc1ccccc1 [Example 10, αS-amino-N-[1,1-dimethyl-2-[[[(phenylmethyl)amino]carbonyl]amino]ethyl]-4-hydroxy.2,6-dimethylbenzenepropanamide, hydrochloride] | 7.64 | > 8.00 | –
5 | Cc1cc(O)cc(C)c1C[C@H](N)C(=O)NCC(C)(C)NC(=O)NCc1ccccc1 [Example 11, αS-amino-4-hydroxy-2,6-dimethyl-N-[2-methyl-2-[[[(phenylmethyl)amino]carbonyl]amino]propyl]benzenepropanamide, hydrochloride] | 7.48 | 7.23 | –
6 | Cc1cc(O)cc(C)c1C[C@H](N)C(=O)NC(C)(C)CNC(=O)CCc1ccccc1 [Example 13, αS-amino-N-[1,1-dimethyl-2-[(1-oxo-3-phenylpropyl)amino]ethyl]-4-hydroxy-2,6-dimethylbenzenepropanamide, hydrochloride] | 8.26 | > 8.00 | relative potency in the Writhing Assay (mice): the most potent compounds of the invention tested in the Writhing Assay; Number of Animals out of 10 Exhibiting Analgesia (mice): 10/10
7 | Cc1cc(O)cc(C)c1C[C@H](N)C(=O)NCC(C)(C)NC(=O)CCc1ccccc1 [Example 14, αS-Amino-4-hydroxy-2,6-dimethyl-N-[2-methyl-2-[(1-oxo-3-phenylpropyl)amino]propyl]benzenepropanamide, hydrochloride] | 7.18 | 7.58 | –
8 | Cc1cc(O)cc(C)c1C[C@H](N)C(=O)N1CCN(Cc2ccccc2)CC1 [Example 15, 1-[2S-Amino-3-(4-hydroxy-2,6-dimethylphenyl)-1-oxopropyl]-4-(phenylmethyl)piperazine, dihydrochloride] | 7.83 | 8.35 | –
9 | Cc1cc(O)cc(C)c1C[C@H](N)C(=O)NC(C)(C)CNC(=O)C#Cc1ccccc1 [Example 18, S-Amino-N-[1,1-dimethyl-2-[(1-oxo-3-phenyl-2-propynyl)amino]ethyl]-4-hydroxy-2,6-dimethylbenzenepropanamide, monohydrochloride] | 8.03 | > 8.00 | –
10 | CC(=O)Nc1ccc(O)cc1 [acetaminophen] | – | – | undesirable side effects [1]: liver toxicity
11 | CC(C)C[C@H](NC(=O)[C@H](Cc1ccccc1)NC(=O)CNC(=O)CNC(=O)[C@@H](N)Cc1ccc(O)cc1)C(=O)O [leucine enkephalin, H2 N-Tyr-Gly-Gly-Phe-Leu-OH] | – | – | binding to the same receptor sites as do the opiates [2]: bind to the same receptor sites as do the opiates; morphine-like actions [3]: exhibit some weak morphine-like actions
12 | CSCC[C@H](NC(=O)[C@H](Cc1ccccc1)NC(=O)CNC(=O)CNC(=O)[C@@H](N)Cc1ccc(O)cc1)C(=O)O [methionine enkephalin, H2 N-Tyr-Gly-Gly-Phe-Met-OH] | – | – | binding to the same receptor sites as do the opiates [2]: bind to the same receptor sites as do the opiates; morphine-like actions [3]: exhibit some weak morphine-like actions

From patent US5389645A, “Substituted tyrosyl diamine amide compounds” (G. D. Searle & Co., priority 1992, dated 1995)
